Experimental data as given in article PMC7356787, “Structure-Activity Relationships for the Anaesthetic and Analgaesic Properties of Aromatic Ring-Substituted Ketamine Esters” (Molecules, 2020).

What was measured:
[1] = tested on: rats; assay: Tail flick analgaesic assessment (composite tail flick latency, cTFL); assay type: in vivo; conditions: rat, 20 mg/kg i.v. infused over 10 min; AUC of %MPE-time curve 0-60 min; measure of analgaesic magnitude/duration
Method: Analgaesic assessment protocol: Animal preparation was in accord with the anaesthetic assessment protocol above. Three rats were used in each study. Following venous cannulation, animals underwent infusion of ketamine or experimental compound at 20 mg/kg over a ten minute interval. A tail flick analgaesia meter (Colombus Instruments, Colombus, Ohio) was then used to determine thermal pain sensitivity. Radiant heat was applied using a shutter-controlled lamp as a heat source focused on a spot located 6–8 cm from the tip of the tail. The intensity of the beam was set at a level producing basal latency times between 2 and 4 s. To prevent thermal tissue injury the cut off time as set at 10 s. A digital response time indicator with a resolution of 0.1s measured the time from initiation of stimulus until tail withdrawal (the flick; TFL).
The TFL response following infusion of control and study drugs was calculated as a percentage of the maximum possible effect (MPE) such that:%MPE = [TFL (post-drug) – TFL (pre-drug)/10 s – TFL (pre-drug)] × 100%(1)
TFL latency was recorded at 5 min intervals from cessation of study drug infusion (time zero) to 60 min. Individual %MPE-time curves were constructed for each animal, and the area under the curve (AUC) adopted as a composite measure of induced analgaesia (cTFL).

[2] = molecular target: N-methyl-D-aspartate receptor; assay: Inhibition of the NMDA receptor (Eurofins Panlabs Taiwan); assay type: binding; conditions: conducted by Eurofins Panlabs Taiwan
Method: (§1) The compounds were evaluated for their ability to anaesthetise rats when administered by continuous intravenous infusion, as reported previously. Compounds were administered to initially deliver 20 mg/kg/min (weight-adjusted flow) to achieve a pedal withdrawal reflex score (PWR = 1), then titrated to maintain loss of righting reflex (LORR) for 10 min. Three rats were used in each study, with each group of rats also acting as their own ketamine control. Data were collected on the total dose of drug (mg/kg), to achieve LORR and a PWR = 1, and on the time (in seconds, from cessation of the infusion) to recovery of righting reflex (RORR) (recovery from the hypnotic anaesthesia effect). Given the complexity of the experimental protocol, the total dose for LORR (Table 1) is very consistent, with ranges of only 1.5-fold within each group. The consistency of the post-sedation recovery times are expectedly lower, with ranges of about 2.5-fold. During recovery the rats were monitored for multiple signs of behavioural dysfunction (see biology section for details) and the sum of these scores (from 0 to 4, with 0 being no effect and 4 being severe dysfunction) is given in Table 2. IC50 values for inhibition of the NMDA receptor were conducted by Eurofins PanLabs, Taiwan.

[3] = tested on: rats; assay: Pedal withdrawal reflex (PWR) scoring during intravenous infusion (analgaesic potency); assay type: in vivo; conditions: rat, i.v. infusion, dose to PWR = 1, mean (SEM), read-out: Analgaesia potency: minimal dose for loss of pedal withdrawal reflex (SEM)
Method: as §1
(§2) All animal experiments were conducted at the Ruakura Research Centre, Hamilton, New Zealand, using experimental protocols reviewed and approved by the Ruakura Animal Ethics Committee (ethics ref 12604/13786). Adult female Sprague-Dawley rats of approximately 250–350 g were evaluated in both anaesthetic and analgaesic study protocols. All study agents were delivered by tail vein cannula connected via minibore extension tubing to mechanised infusion pump.
(§3) Following acquisition of baseline physiologic parameters (heart rate, respiratory rate, PWR, and righting reflex (RR)) ketamine or an experimental compound at 10mg/mL were commenced at a rate (weight-adjusted) to deliver 20 mg/kg/min. Dose to loss of righting reflex (LORR see below), and subsequent pedal withdrawal score of 1 (PWR see below) were recorded. Following attaining a PWR of 1, infusion rate was reduced to 6.7 mg/kg/min, then titrated in an up-and-down fashion as required to maintain both dorsal recumbency, and a PWR = 1, to 10 min before cessation. Each study used three rats, with each group of rats also acting as their own ketamine control. Prior odds/evens randomisation determined the order of study drug administration was determined by with a recovery interval of at least three hours afforded between experiments. Records of PWR and RR were made at one-minute intervals throughout, from cessation of infusion to return of righting reflex (RORR), and from cessation of infusion to the animals displaying independent locomotion (walk).
Pedal Withdrawal Reflex (PWR) scoring: Nociceptive testing in animals was conducted via 1 s application of constant pressure (firm digital pressure) over the forepaw of the animal. Pedal withdrawal reflex testing is primarily used to assess analgaesic effect, and responses are graded accordingly: 0, absent; 1, flicker; 2, moderate withdrawal; 3, fast withdrawal; 4, Fast withdrawal with cry/preceding apnoea (modified from).

[4] = tested on: rats; assay: Behavioural dysfunction scoring during recovery from infusion; assay type: in vivo; conditions: rat, during wake-up; sum score 0 (no effect) to 4 (severe dysfunction); mean (SEM)
Method: as §1
Behavioural dysfunction scoring: This was undertaken according to the following table. Observations were made over a one minute interval every five minutes from cessation of infusion until return of normal behaviours (total score = 0). A score of 1 was accorded for any positive behavioural aberration for each of four categories (maximal score 4) during wake-up.
Duration of any behavioural aberration was recorded from RORR as follows: score 0 = nil; score1 = 0–120 s; score 2 = 121–300 s; score 3 = 301–600 s; score 4 = 600+ s.

[5] = tested on: rats; assay: Anaesthetic assessment by continuous intravenous infusion in rats (loss and return of righting reflex); assay type: in vivo; conditions: rat; for minimal effective dose: iv, i.v. infusion starting at 20 mg/kg/min, measure of sedative potency, mean (SEM), read-out: Sedation LORR: minimal dose for loss of righting reflex (SEM)
Method: as §1, §2, §3
Loss of Righting Reflex (LORR): This is primarily used to assess anaesthetic hypnotic effect. Righting reflex is judged absent when the rat fails to right from a position of dorsal recumbency to a position of sternal recumbency on three attempts performed in rapid succession. Dose to LORR is termed effective potency.

| SMILES | Analgaesia cTFL (composite tail flick latency) [1] | IC50 [2] | minimal effective dose [3] | Behavioural dysfunction Score (SEM): severity on recovery [4] | minimal effective dose [5] | Seizure-inducing effect during infusion ([5]; i.v. infusion in anaesthetic assessment protocol) |
| --- | --- | --- | --- | --- | --- | --- |
| COC(=O)CCCCNC1(c2ccc(C(F)(F)F)cc2)CCCCC1=O (stereo not drawn) [18b] | 37 s | 470 µM | > 200 mg/kg | 0 (0) | > 200 mg/kg | – |
| COC(=O)CCCCNC1(c2ccccc2C(F)(F)F)CCCCC1=O (stereo not drawn) [8b] | 1864 s | 128 µM | 156 mg/kg | 1 (0) | 154 mg/kg | – |
| COC(=O)CCCCNC1(c2cccs2)CCCCC1=O (stereo not drawn) [20b] | 196 s | 8.9 µM | 74 mg/kg | – | 52 mg/kg | – |
| COC(=O)CCCCNC1(c2ccc(C)cc2)CCCCC1=O (stereo not drawn) [16b] | 0 s | 23 µM | 55 mg/kg | 1 (0) | 50 mg/kg | – |
| COC(=O)CCCCNC1(c2ccccc2OC(F)(F)F)CCCCC1=O (stereo not drawn) [9b] | 119 s | 121 µM | > 200 mg/kg | 3 (1) | > 200 mg/kg | – |
| COC(=O)CCCCNC1(c2ccc(OC(F)(F)F)cc2)CCCCC1=O (stereo not drawn) [19b] | 194 s | 597 µM | > 200 mg/kg | 0 (0) | > 200 mg/kg | – |
| COC(=O)CCCCNC1(c2cccc(C(F)(F)F)c2)CCCCC1=O (stereo not drawn) [13b] | 8 s | 172 µM | > 200 mg/kg | 0 (0) | > 200 mg/kg | – |
| CC(C)OC(=O)CCNC1(c2ccccc2C(F)(F)F)CCCCC1=O (stereo not drawn) [8a] | 652 s | 290 µM | 64 mg/kg | 2 (1) | 64 mg/kg | – |
| CC(C)OC(=O)CCNC1(c2ccc(OC(F)(F)F)cc2)CCCCC1=O (stereo not drawn) [19a] | 166 s | 314 µM | > 200 mg/kg | 0 (0) | > 200 mg/kg | – |
| Cc1ccccc1C1(NCCC(=O)OC(C)C)CCCCC1=O (stereo not drawn) [6a] | 393 s | 428 µM | > 200 mg/kg | 0 (0) | > 200 mg/kg | – |
| COC(=O)CCCCNC1(c2cccc(OC(F)(F)F)c2)CCCCC1=O (stereo not drawn) [14b] | 444 s | 57 µM | > 200 mg/kg | 0 (0) | > 200 mg/kg | – |
| CC(C)OC(=O)CCNC1(c2cccc(C(F)(F)F)c2)CCCCC1=O (stereo not drawn) [13a] | 208 s | 229 µM | > 200 mg/kg | 0 (0) | > 200 mg/kg | – |
| COC(=O)CCCCNC1(c2ccc(OC)cc2)CCCCC1=O (stereo not drawn) [17b] | 551 s | 94.1 µM | – | 3 (0) | – | seizure-inducing effect |
| COc1cccc(C2(NCCC(=O)OC(C)C)CCCCC2=O)c1 (stereo not drawn) [12a] | 284 s | 201 µM | 83 mg/kg | 2 (0) | 79 mg/kg | – |
| CC(C)OC(=O)CCNC1(c2ccc(Cl)cc2)CCCCC1=O (stereo not drawn) [15a] | 491 s | 129 µM | > 200 mg/kg | 2 (1) | 99 mg/kg | – |
| CC(C)OC(=O)CCNC1(c2cccc(OC(F)(F)F)c2)CCCCC1=O (stereo not drawn) [14a] | 274 s | 211 µM | > 200 mg/kg | 0 (0) | > 200 mg/kg | – |
| COC(=O)CCCCNC1(c2cccc(OC)c2)CCCCC1=O (stereo not drawn) [12b] | 210 s | 5.6 µM | 58 mg/kg | 3 (1.4) | 50 mg/kg | – |
| COc1ccc(C2(NCCC(=O)OC(C)C)CCCCC2=O)cc1 (stereo not drawn) [17a] | 167 s | 396 µM | > 200 mg/kg | 0 (0) | > 200 mg/kg | – |
| CC(C)OC(=O)CCNC1(c2cccs2)CCCCC1=O (stereo not drawn) [20a] | 362 s | 157 µM | > 200 mg/kg | 1 (1) | > 200 mg/kg | – |
| COC(=O)CCCCNC1(c2ccccc2)CCCCC1=O (stereo not drawn) [3b] | 0 s | 9.9 µM | 45 mg/kg | 1 (0) | 40 mg/kg | – |
| CC(C)OC(=O)CCNC1(c2ccc(C(F)(F)F)cc2)CCCCC1=O (stereo not drawn) [18a] | 412 s | 438 µM | > 200 mg/kg | 0 (0) | > 200 mg/kg | – |
| COC(=O)CCCCNC1(c2cccc(C)c2)CCCCC1=O (stereo not drawn) [11b] | 104 s | 5.2 µM | 43 mg/kg | 2 (1) | 39 mg/kg | – |
| CC(C)OC(=O)CCNC1(c2ccccc2OC(F)(F)F)CCCCC1=O (stereo not drawn) [9a] | 80 s | 184 µM | 62 mg/kg | 1 (0) | 62 mg/kg | – |
| COC(=O)CCCCNC1(c2ccccc2F)CCCCC1=O (stereo not drawn) [4b] | 11 s | 3.1 µM | 40 mg/kg | 3 (1.4) | 35 mg/kg | – |
| COC(=O)CCCCNC1(c2cccc(Cl)c2)CCCCC1=O (stereo not drawn) [10b] | 54 s | 13 µM | 61 mg/kg | 3 (1) | 51 mg/kg | – |
